The assay deals with alanyl aminopeptidases (APN) (Homo sapiens, UniProt P15144). The assay can be described thus: Inhibition of alanyl aminopeptidase enzymatic activity, fluorogenic substrate (Ala)2-rhodamine 110. The note with it: read-out: IC50APN. In kind it is biochemical. Here is the method: The inhibition characteristics measured are referred to as IC-50 values or ID50 values (the latter marked with “*”) for said enzyme. The enzymatic activity was determined by means of the fluorogenic substrate/product (Ala)2-rhodamine 110.

Structures are written as SMILES. Read-outs that look alike come from different tables or passages of the source.

Chain of alanyl aminopeptidases (APN) (P15144 whole entry, species assumed): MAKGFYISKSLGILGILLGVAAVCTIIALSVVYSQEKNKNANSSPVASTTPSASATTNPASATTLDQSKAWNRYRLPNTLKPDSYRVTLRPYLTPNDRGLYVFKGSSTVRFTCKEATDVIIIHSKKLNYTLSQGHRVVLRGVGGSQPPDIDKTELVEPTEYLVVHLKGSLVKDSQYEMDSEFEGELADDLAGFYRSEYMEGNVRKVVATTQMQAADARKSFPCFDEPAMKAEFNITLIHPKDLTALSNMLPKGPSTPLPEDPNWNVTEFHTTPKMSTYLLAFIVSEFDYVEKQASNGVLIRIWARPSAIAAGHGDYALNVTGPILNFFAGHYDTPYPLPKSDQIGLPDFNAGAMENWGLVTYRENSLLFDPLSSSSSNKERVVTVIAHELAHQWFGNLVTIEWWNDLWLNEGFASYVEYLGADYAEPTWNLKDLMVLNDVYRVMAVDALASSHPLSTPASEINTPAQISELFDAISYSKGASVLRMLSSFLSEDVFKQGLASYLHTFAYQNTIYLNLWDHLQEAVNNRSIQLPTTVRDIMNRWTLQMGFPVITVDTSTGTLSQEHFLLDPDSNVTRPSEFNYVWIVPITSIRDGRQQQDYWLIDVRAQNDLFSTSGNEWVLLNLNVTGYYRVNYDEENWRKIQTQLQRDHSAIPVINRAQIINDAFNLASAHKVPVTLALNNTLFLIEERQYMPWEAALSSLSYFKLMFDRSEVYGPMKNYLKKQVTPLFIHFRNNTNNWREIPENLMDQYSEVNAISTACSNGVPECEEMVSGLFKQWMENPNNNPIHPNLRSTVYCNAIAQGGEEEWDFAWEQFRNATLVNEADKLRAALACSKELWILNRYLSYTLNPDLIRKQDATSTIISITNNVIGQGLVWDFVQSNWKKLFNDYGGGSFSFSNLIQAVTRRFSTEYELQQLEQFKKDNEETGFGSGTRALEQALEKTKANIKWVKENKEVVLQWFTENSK

In the case of `CC1CC(=O)N(C(=O)CCBr)c2ccc([N+](=O)[O-])cc2N1C(=O)CCBr` (centres unmarked) [A10.008], where the note is “Table 10”, the IC50 was 99.8 µM. Consider `N/C(=N\[N+](=O)[O-])N/N=C/c1ccco1` [A11.001], for which, under “Table 11”, the IC50 was determined as 7.6 µM. In the case of `CCN(CC)c1ccc(/C=C(\NC(=O)c2ccccc2)C(=O)N/N=C/c2ccc(O)c([N+](=O)[O-])c2)cc1` [A11.002], the IC50 (Table 11) was 7.6 µM. With `O=C(Cc1ccc(Br)c2ccccc12)N/N=C/c1ccc([N+](=O)[O-])c(O)c1` [A11.003], where the note is “Table 11”, the IC50 is 7 µM. With `N#Cc1cc(N2CC3CC(C2)c2cccc(=O)n2C3)c([N+](=O)[O-])cc1C#N` (centres unmarked) [A11.004], the IC50 (Table 11) came out at 8.9 µM. The same measure, in the same setting: the same measure for `O=C(N/N=C(/CC(=O)c1cccs1)C(F)(F)F)c1cccc([N+](=O)[O-])c1` [A11.005]: 10.7 µM; for `Cc1ccc(C)c(NC(=O)C(=O)N/N=C/c2cc([N+](=O)[O-])ccc2O)c1` [A11.006]: 10.8 µM; for `CC(NC(=O)C(=O)N/N=C\c1cc([N+](=O)[O-])ccc1O)c1ccccc1` (centres unmarked) [A11.007]: 11.4 µM.

On to `CN(C)CCCN1CCN(c2nc(N(C)CC(=O)O)c3ncn(Cc4ccc([N+](=O)[O-])cc4)c3n2)CC1` [A11.008], for which the IC50 (Table 11) came out at 11.8 µM. Still for that read-out and setting: as for `CCN(CC)C(=O)c1cc([N+](=O)[O-])ccc1C(=O)O` [A11.009], the figure is 12.1 µM.

Consider `CC(C)C/C=N/NC(=O)c1ccc([N+](=O)[O-])cc1Cl` [A11.010], for which the IC50 (Table 11) stood at 15.6 µM.

With `O=[N+](O)CC(c1ccccc1)P(=O)(c1ccccc1)c1ccccc1` (centres unmarked) [A11.011], the IC50 (Table 11) worked out at 16.3 µM.

On to `O=C(Cc1ccc([N+](=O)[O-])cc1)N1CCOCC1` [A11.012], for which the IC50 (Table 11) stood at 19.1 µM. Same read-out and setting: the same measure for `O=C(N/N=C/c1cc([N+](=O)[O-])ccc1O)c1ccc(O)cc1O` [A11.013]: 20.2 µM.

For `CC(=O)Oc1ccc([N+](=O)[O-])cc1/C=N/NC(=O)COc1cc(C)ccc1C(C)C` [A11.014], the IC50 (Table 11) turned out to be 20.3 µM. For the compound `O=C1C=CC(=O)N1c1cc([N+](=O)[O-])ccc1F` [A11.015], the IC50 (Table 11) is 20.8 µM. For the compound `O=C1c2cccc3c(Br)c([N+](=O)[O-])cc(c23)C(=O)N1c1cccc([N+](=O)[O-])c1` [A11.016], for the setting “Table 11”, the IC50 was found to be 23.3 µM. On the same count and under the same terms, the same measure for `O=C(Nc1ccc(O)cc1C(=O)O)c1cccc(N2C(=O)c3cccc4c([N+](=O)[O-])ccc(c34)C2=O)c1` [A11.017]: 23.6 µM. Consider `O=C1CNC(c2cccc([N+](=O)[O-])c2)N1O` (centres unmarked) [A11.018], for which the IC50 (Table 11) was 26.4 µM. As for `CCCCCCCSc1nnc2c(n1)CC(C(=O)c1ccccc1)=Nc1ccccc1-2` [A11.019], the IC50 (Table 11) was found to be 28.9 µM. Consider `C=CCN1C(=O)C(C#N)=C(C)/C(=C\c2ccc(-c3cc(C)c(C)cc3[N+](=O)[O-])o2)C1=O` [A11.020], for which the IC50 (Table 11) is 29.3 µM.

As for `O=c1[nH]cc([N+](=O)[O-])cc1C(F)(F)F` [A11.021], the IC50 (Table 11) came to 29.9 µM. `CCOC(=O)C(C#N)c1c([N+](=O)[O-])c(=O)n(-c2ccccc2)c2ccccc12` (centres unmarked) [A11.022]: under “Table 11”, the IC50 was 30 µM. Still for that read-out and setting: the same measure for `O=C(CC1(O)CCCCC1)N/N=C/c1ccccc1[N+](=O)[O-]` [A11.023]: 31.1 µM; for `CC(=O)N1CCOC1(C)c1ccc([N+](=O)[O-])cc1` (centres unmarked) [A11.024]: 32.8 µM. In the case of `NCCCCCC(=O)C[N+](=O)[O-]` [A11.025], for the setting “Table 11”, the IC50 came to 33.2 µM. For `O=[N+]([O-])c1ncn(CN2CCOCC2)n1` [A11.026], the IC50 (Table 11) was 36.8 µM. `O=C(Nc1ccc(F)cc1)c1ccc([NH+]([O-])O)o1` (centres unmarked) [A11.027]: the IC50 (Table 11) turned out to be 37.4 µM.

`O=C(OCC1CCCO1)c1cc([N+](=O)[O-])cc([N+](=O)[O-])c1` (centres unmarked) [A11.028]: under “Table 11”, the IC50 is 39.3 µM. Take `O=C(N/N=C/c1cccc([N+](=O)[O-])c1)c1ccco1` [A11.029]: the IC50 (Table 11) amounted to 45.4 µM. For `O=C(C[N+](=O)[O-])c1cc2occc2[nH]1` [A11.030], where the note is “Table 11”, the IC50 came to 49.5 µM. Turning to `O=C(N/N=C/c1cc(Br)ccc1OC(=O)c1ccc([N+](=O)[O-])cc1)/C(=C\c1ccc2c(c1)OCO2)NC(=O)c1ccccc1` [A11.031], the IC50 (Table 11) worked out at 54.2 µM.

(Values after patent US20070037752A1, “Novel alanyl-amino peptidase inhibitors for functionally influencing different cells and treating immunological, inflammatory, neuronal, and other diseases” (priority 2003, published 2007).)
